From patent US5559092A, “Cosmetic composition” (Chesebrough-Pond's USA Co. Division of Conopco, Inc., priority 1992, dated 1996) come the findings set out here.

Molecules are shown by their SMILES. Entries after “also recorded” stand apart in the source; their conditions may differ.

Data set [1] relates to isolated human hair follicles. In words: in vitro hair follicle growth test (elongation of isolated human hair follicles in culture medium). It counts as cell-based. How it is done: The effect of compounds on hair growth was assessed using an in vitro test which measures the elongation of isolated human hair follicles in a culture medium.
This test includes the important step of isolating hair follicles having an undamaged hair bulb from human skin, for example, facelift skin, by microdissection.
The critical step of separating the hair follicle with intact undamaged hair bulb from the subcutaneous fatty tissue in which it is situated accordingly involves severing the hair shaft of the follicle at a point below the epidermis of skin surface, so as to leave the hair bulb intact and undamaged while still bearing a portion of the hair shaft.
Preferably, the hair shaft of the follicle is severed at the dermal-subcutaneous fat interface.
Any suitable cutting instrument can be employed to sever the hair shaft in this manner, but a keratotome or a scalpel are preferred.
The hair bulb with a hair Shaft stump attached is then isolated from the skin by mechanically separating the hair from loosely adhering subcutaneous fat which normally surrounds the hair bulb. This is achieved after the dermis or upper layer of the skin has been separated and removed, to avoid damaging the hair bulb as it is pulled away.
The hair bulb together with hair shaft stump attached, is then transferred in an otherwise undamaged and fully functioning, viable state to a nutrient medium.
The hair follicles isolated by the technique described herein are transferred to a suitable culture medium for subsequent testing of substances that can then influence their future development.
The procedure now to be described represents a preferred method of culture and testing of hair growth.
In accordance with the preferred method of culture, isolated hair follicles, […], are maintained in 1 ml of Williams E medium, either with or without a test hair growth substance, supplemented with […] (Penicillin and Streptomyein), Insulin (10 ng/ml) and Hydrocortisone (10 ng/ml). The medium was incubated at 37° C. in an atmosphere of 5% CO2 +95% air in individual wells of a 24 multiwell dish (Corning), which permits detailed measurements to be made of the length of individual hair follicles. The medium was refreshed once during the experiment after 4 days.
Williams E medium is available from FLOW Laboratory under Catalogue No. 12-502. […]
Daily growth rate and cumulative growth for each follicle were calculated by measuring the change in length of the follicles each day and from this the average of all the follicles was calculated.
The response of an isolated hair follicle to a test substance, can accordingly be assessed by measuring the increase in length, if any, in the presence of a test substance against a control. […]

Data set [2] is described as follows: storage stability in aqueous hair treatment composition (shampoo, conditioner or tonic). The conditions noted are these: ambient temperature, 3 months. It counts as physicochemical. The source says:
From these observations, it was realised that the αNH2 group of glutamine should be protected in order to stablise the molecule.

[3] abbreviates: 2 mM in Williams E medium & glucose.

For `NC(=O)CC[C@H](N)C(=O)O` [Glutamine, glutamine], in data set [1] (setting [3]), the “Amount of hair grown in one week” value amounted to 2.02 mm and the “Average daily rate of growth of hair over one week” value turned out to be 0.277 mm/d. Further, the “potency as hair growth promoter after storage” value in data set [1] (after 3 months storage at 20° C.) is “diminished significantly”. The “effect on linear hair growth (in words)” value in data set [1] (isolated human follicles in vitro, compared with the control) is given as “potent promoter of linear hair growth; also recorded: significant increase in hair growth”. Moreover, in data set [2], the “stability during storage in aqueous hair treatment composition” value was “a significant amount of the glutamine had been converted to pyroglutamic acid and ammonia”.
